33 compounds from patent publication US20260078122A1, “INDAZOLE COMPOUNDS AS PKMYT1 KINASE INHIBITORS” (Hoffmann-La Roche Inc., priority 2023, published 2026) can be followed below.

A value given as a limit tells only on which side of the number the result lay.

The test has as its target T1, recombinant human Myt1 (full length PKMYT1) (Homo sapiens, UniProt Q99640).
T1 sequence (Q99640 1-499): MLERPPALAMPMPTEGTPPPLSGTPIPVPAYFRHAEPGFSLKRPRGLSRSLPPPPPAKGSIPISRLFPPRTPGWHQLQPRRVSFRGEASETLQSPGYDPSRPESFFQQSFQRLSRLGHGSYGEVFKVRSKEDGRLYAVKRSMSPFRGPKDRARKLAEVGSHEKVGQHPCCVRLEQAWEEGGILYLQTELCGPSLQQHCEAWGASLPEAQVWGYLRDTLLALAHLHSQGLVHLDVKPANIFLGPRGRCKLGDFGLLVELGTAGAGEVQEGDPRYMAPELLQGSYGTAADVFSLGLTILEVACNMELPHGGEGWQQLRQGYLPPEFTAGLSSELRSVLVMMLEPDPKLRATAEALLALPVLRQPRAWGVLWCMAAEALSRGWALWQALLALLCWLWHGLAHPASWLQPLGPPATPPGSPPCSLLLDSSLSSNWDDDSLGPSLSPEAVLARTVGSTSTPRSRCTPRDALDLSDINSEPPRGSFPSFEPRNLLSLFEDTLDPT
The experiment in a line: ADP-Glo assay (Myt1 kinase activity).
What is called IC50 is the concentration needed to halve the response being measured. Consider `Nc1c(-c2ccc(F)c3[nH]ncc23)c2nc(C3CC3)c(Cl)cc2[nH]c1=O` [Example 55, 3-Amino-7-chloro-6-cyclopropyl-4-(7-fluoro-1H-indazol-4-yl)-1H-1,5-naphthyridin-2-one], for which the IC50 amounted to 0.0124 µM.
As to `Cc1nc2c(-c3ccc(F)c4[nH]ncc34)c(N)c(=O)[nH]c2c(C)c1Cl` [Example 56, 3-Amino-7-chloro-4-(7-fluoro-1H-indazol-4-yl)-6,8-dimethyl-1H-1,5-naphthyridin-2-one], the IC50 was less than 0.01 µM.
Under `Cc1nc2c(-c3ccc(F)c4[nH]ncc34)c(N)c(=O)[nH]c2c(Cl)c1C` [Example 57, 3-Amino-8-chloro-4-(7-fluoro-1H-indazol-4-yl)-6,7-dimethyl-1H-1,5-naphthyridin-2-one] stands 0.0117 µM.
`Cc1cc2[nH]c(=O)c(N)c(-c3ccc(F)c4[nH]ncc34)c2nc1OCC1(C#N)CC1` [Example 58, 1-[[7-Amino-8-(7-fluoro-1H-indazol-4-yl)-3-methyl-6-oxo-5H-1,5-naphthyridin-2-yl]oxymethyl]cyclopropanecarbonitrile]: the IC50 was less than 0.01 µM.
The value for `Cc1cc2[nH]c(=O)c(N)c(-c3ccc(F)c4[nH]ncc34)c2nc1OCC(F)F` [Example 059, 3-Amino-6-(2,2-difluoroethoxy)-4-(7-fluoro-1H-indazol-4-yl)-7-methyl-1H-1,5-naphthyridin-2-one] was less than 0.01 µM; that for `COc1nc2c(-c3ccc(F)c4[nH]ncc34)c(N)c(=O)[nH]c2cc1C` [Example 060, 3-Amino-4-(7-fluoro-1H-indazol-4-yl)-6-methoxy-7-methyl-1H-1,5-naphthyridin-2-one] was less than 0.01 µM.
For the compound `Cc1cc2[nH]c(=O)c(N)c(-c3ccc(F)c4[nH]ncc34)c2nc1OC(F)F` [Example 062, 3-Amino-6-(difluoromethoxy)-4-(7-fluoro-1H-indazol-4-yl)-7-methyl-1H-1,5-naphthyridin-2-one], the IC50 came to 0.0146 µM.
Turning to `Cc1cc2[nH]c(=O)c(N)c(-c3ccc(F)c4[nH]ncc34)c2nc1OCC12CC(C1)C2` [Example 063, 3-Amino-6-(1-bicyclo[1.1.1]pentanylmethoxy)-4-(7-fluoro-1H-indazol-4-yl)-7-methyl-1H-1,5-naphthyridin-2-one], the half-inhibitory concentration (IC50) was found to be 0.0097 µM.
Consider `Cc1cc2[nH]c(=O)c(N)c(-c3ccc(F)c4[nH]ncc34)c2nc1OC(C)C` [Example 064, 3-Amino-4-(7-fluoro-1H-indazol-4-yl)-6-isopropoxy-7-methyl-1H-1,5-naphthyridin-2-one], for which the IC50 was less than 0.01 µM.
`CCCOc1nc2c(-c3ccc(F)c4[nH]ncc34)c(N)c(=O)[nH]c2cc1C` [Example 065, 3-Amino-4-(7-fluoro-1H-indazol-4-yl)-7-methyl-6-propoxy-1H-1,5-naphthyridin-2-one]: the IC50 is 0.0147 µM.
On to `Cc1cc2[nH]c(=O)c(N)c(-c3ccc(F)c4[nH]ncc34)c2nc1OCC(F)(F)F` [Example 066, 3-Amino-4-(7-fluoro-1H-indazol-4-yl)-7-methyl-6-(2,2,2-trifluoroethoxy)-1H-1,5-naphthyridin-2-one], for which the IC50 came to 0.0116 µM.
Take `COC(=O)C1CC(Oc2nc3c(-c4ccc(F)c5[nH]ncc45)c(N)c(=O)[nH]c3cc2C)C1` (stereo not drawn) [Example 067, Methyl 3-[[7-amino-8-(7-fluoro-1H-indazol-4-yl)-3-methyl-6-oxo-5H-1,5-naphthyridin-2-yl]oxy]cyclobutanecarboxylate]: the concentration for half-maximal inhibition (IC50) turned out to be 0.0244 µM.
Turning to `Cc1cc2[nH]c(=O)c(N)c(-c3ccc(F)c4[nH]ncc34)c2nc1OCCN(C)C` [Example 068, 3-Amino-6-[2-(dimethylamino)ethoxy]-4-(7-fluoro-1H-indazol-4-yl)-7-methyl-1H-1,5-naphthyridin-2-one], the IC50 was 0.0175 µM.
Under `COCC#Cc1nc2c(-c3ccc(F)c4[nH]ncc34)c(N)c(=O)[nH]c2cc1C` [Example 071, 3-Amino-4-(7-fluoro-1H-indazol-4-yl)-6-(3-methoxyprop-1-ynyl)-7-methyl-1H-1,5-naphthyridin-2-one] stands 0.0131 µM; under `COC(C)(C)C#Cc1nc2c(-c3ccc(F)c4[nH]ncc34)c(N)c(=O)[nH]c2cc1C` [Example 072, 3-Amino-4-(7-fluoro-1H-indazol-4-yl)-6-(3-methoxy-3-methyl-but-1-ynyl)-7-methyl-1H-1,5-naphthyridin-2-one], 0.0112 µM; under `Cc1cc2[nH]c(=O)c(N)c(-c3ccc(F)c4[nH]ncc34)c2nc1OCC(C)(C)O` [Example 078, 3-Amino-4-(7-fluoro-1H-indazol-4-yl)-6-(2-hydroxy-2-methyl-propoxy)-7-methyl-1H-1,5-naphthyridin-2-one], 0.0172 µM.
Under `Cc1cc2[nH]c(=O)c(N)c(-c3ccc(F)c4[nH]ncc34)c2nc1OC1CC(C#N)C1` (stereo not drawn) [Example 079, 3-[[7-Amino-8-(7-fluoro-1H-indazol-4-yl)-3-methyl-6-oxo-5H-1,5-naphthyridin-2-yl]oxy]cyclobutanecarbonitrile] stands 0.0178 µM.
Take `Cc1cc2[nH]c(=O)c(N)c(-c3ccc(F)c4[nH]ncc34)c2nc1O[C@H]1C[C@H](F)C1` [Example 080, trans-3-Amino-6-(3-fluorocyclobutoxy)-4-(7-fluoro-1H-indazol-4-yl)-7-methyl-1H-1,5-naphthyridin-2-one]: the half-inhibitory concentration (IC50) is 0.0211 µM.
As for `Cc1cc2[nH]c(=O)c(N)c(-c3ccc(F)c4[nH]ncc34)c2nc1OCCC(F)F` [Example 081, 3-Amino-6-(3,3-difluoropropoxy)-4-(7-fluoro-1H-indazol-4-yl)-7-methyl-1H-1,5-naphthyridin-2-one], the IC50 turned out to be 0.0146 µM.
As for `COC(=O)c1nc2c(-c3ccc(F)c4[nH]ncc34)c(N)c(=O)[nH]c2cc1C` [Example 087, Methyl 7-amino-8-(7-fluoro-1H-indazol-4-yl)-3-methyl-6-oxo-5H-1,5-naphthyridine-2-carboxylate], the IC50 came to 0.0123 µM.
Take `Cc1cc2[nH]c(=O)c(N)c(-c3ccc(F)c4[nH]ncc34)c2nc1C(C)(C)O` [Example 088, 3-Amino-4-(7-fluoro-1H-indazol-4-yl)-6-(1-hydroxy-1-methyl-ethyl)-7-methyl-1H-1,5-naphthyridin-2-one]: the IC50 worked out at 0.047 µM.
For the compound `Cc1cc2[nH]c(=O)c(N)c(-c3ccc(F)c4[nH]ncc34)c2nc1C1COC1` [Example 093, 3-Amino-4-(7-fluoro-1H-indazol-4-yl)-7-methyl-6-(oxetan-3-yl)-1H-1,5-naphthyridin-2-one], the 50% inhibitory concentration (IC50) turned out to be 0.0119 µM.
For `Nc1c(-c2ccc(F)c3[nH]ncc23)c2nc(Cl)c(C3CC3)cc2[nH]c1=O` [Example 095, 3-Amino-6-chloro-7-cyclopropyl-4-(7-fluoro-1H-indazol-4-yl)-1H-1,5-naphthyridin-2-one], the IC50 was less than 0.01 µM.
Turning to `Cc1cc2[nH]c(=O)c(N)c(-c3ccc(F)c4[nH]ncc34)c2nc1OC1CC(C(C)(C)O)C1` (stereo not drawn) [Example 096, 3-Amino-4-(7-fluoro-1H-indazol-4-yl)-6-[3-(1-hydroxy-1-methyl-ethyl)cyclobutoxy]-7-methyl-1H-1,5-naphthyridin-2-one], the IC50 is 0.0652 µM.
`Cc1cc2[nH]c(=O)c(N)c(-c3ccc(F)c4[nH]ncc34)c2nc1C(F)(F)F` [Example 097, 3-Amino-4-(7-fluoro-1H-indazol-4-yl)-7-methyl-6-(trifluoromethyl)-1H-1,5-naphthyridin-2-one]: the IC50 was found to be 0.0249 µM.
Regarding `COc1cc(C)cc2[nH]c(=O)c(N)c(-c3ccc(F)c4[nH]ncc34)c12` [Example 102, 3-Amino-4-(7-fluoro-1H-indazol-4-yl)-5-methoxy-7-methyl-1H-quinolin-2-one], the half-maximal inhibitory concentration (IC50) amounted to 0.016 µM.
`Cc1cc(Cl)c2c(-c3ccc(F)c4[nH]ncc34)c(N)c(=O)[nH]c2c1` [Example 103, 3-Amino-5-chloro-4-(7-fluoro-1H-indazol-4-yl)-7-methyl-1H-quinolin-2-one]: the IC50 is less than 0.01 µM.
The value for `Cc1cc2[nH]c(=O)c(N)c(-c3ccc(F)c4[nH]ncc34)c2cc1Br` [Example 104, 3-Amino-6-bromo-4-(7-fluoro-1H-indazol-4-yl)-7-methyl-1H-quinolin-2-one] was 0.0157 µM; that for `Cc1cc2[nH]c(=O)c(N)c(-c3ccc(F)c4[nH]ncc34)c2cc1N1CC2(COC2)C1` [Example 105, 3-Amino-4-(7-fluoro-1H-indazol-4-yl)-7-methyl-6-(2-oxa-6-azaspiro[3.3]heptan-6-yl)-1H-quinolin-2-one] was 0.0185 µM.
For the compound `Cc1cc2[nH]c(=O)c(N)c(-c3ccc(F)c4[nH]ncc34)c2cc1C1CCN(CC(F)(F)F)CC1` [Example 106, 3-Amino-4-(7-fluoro-1H-indazol-4-yl)-7-methyl-6-[1-(2,2,2-trifluoroethyl)-4-piperidyl]-1H-quinolin-2-one], the IC50 came to 0.0145 µM.
In the case of `Cc1c(Br)nc2c(-c3ccc(F)c4[nH]ncc34)c(N)c(=O)[nH]c2c1Cl` [Example 108, 3-Amino-6-bromo-8-chloro-4-(7-fluoro-1H-indazol-4-yl)-7-methyl-1H-1,5-naphthyridin-2-one], the IC50 amounted to 0.0151 µM.
Turning to `Cc1c(C2CC2)nc2c(-c3ccc(F)c4[nH]ncc34)c(N)c(=O)[nH]c2c1Cl` [Example 109, 3-Amino-8-chloro-6-cyclopropyl-4-(7-fluoro-1H-indazol-4-yl)-7-methyl-1H-1,5-naphthyridin-2-one], the IC50 was less than 0.01 µM.
Turning to `C#Cc1nc2c(-c3ccc(F)c4[nH]ncc34)c(N)c(=O)[nH]c2c(Cl)c1C` [Example 111, 3-Amino-8-chloro-6-ethynyl-4-(7-fluoro-1H-indazol-4-yl)-7-methyl-1H-1,5-naphthyridin-2-one], the IC50 is less than 0.01 µM.
